Source: patent publication US11377441B2, “Covalent inhibitors of KRAS” (Araxes Pharma LLC, priority 2017, dated 2022)

The compounds below were run against T1, KRAS G12C 1-169, his-tagged protein, GDP-loaded (Homo sapiens, UniProt P01116, G12C) (assay: Biochemical assay: covalent modification of KRAS G12C measured by mass spectrometry (RapidFire/TOF or Q-Exactive)). Conditions: covalent binding to (modification of) KRAS G12C after a ten minute incubation period.
T1 construct: KRAS G12C 1-169, his-tagged protein, GDP-loaded
Format: binding
How it was run: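 Intact-mass readout (TOF or Q-Exactive, charge-envelope deconvolution) gives percent covalent adduct from modified and unmodified species. Compound at 10, 30 or 100 μM was incubated at room temperature for 10 min to 24 h with 2 μM or 0.5 μM GDP-bound KRAS G12C 1-169 in Hepes/NaCl/MgCl2 buffer, then acid-quenched.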

| Structure (SMILES) | Binding % |
| --- | --- |
| C=CC(=O)N1C[C@H](C)N(c2nc(OCCN3CCN(C)CC3)nc3c(F)c(-c4c(C)ccc5cnn(C)c45)c(Cl)cc23)C[C@H]1C (atropisomer, axis not shown) [Compound 169, 1-((2R,5S)-4-((R)-6-chloro-7-(1,6-dimethyl-1H-indazol-7-yl)-8-fluoro-2-(2-(4-methylpiperazin-1-yl)ethoxy)quinazolin-4-yl)-2,5-dimethylpiperazin-1-yl)prop-2-en-1-one] | +++ (+++ indicates binding activity greater than 80%) |
| C=CC(=O)N1C[C@H](C)N(c2nc(N3CC(NC)C3)nc3c(F)c(-c4c(C)ccc5cnn(C)c45)c(Cl)cc23)C[C@H]1C (atropisomer, axis not shown) [Compound 170, 1-((2R,5S)-4-((R)-6-chloro-7-(1,6-dimethyl-1H-indazol-7-yl)-8-fluoro-2-(3-(methylamino)azetidin-1-yl)quinazolin-4-yl)-2,5-dimethylpiperazin-1-yl)prop-2-en-1-one] | +++ (+++ indicates binding activity greater than 80%) |
| C=CC(=O)N1C[C@H](C)N(c2nc(N3CC(N(C)C)C3)nc3c(F)c(-c4c(F)ccc5cnn(C6CC6)c45)c(Cl)cc23)C[C@H]1C (atropisomer, axis not shown) [Compound 201, 1-((2R,5S)-4-((S)-6-chloro-7-(1-cyclopropyl-6-fluoro-1H-indazol-7-yl)-2-(3-(dimethylamino)azetidin-1-yl)-8-fluoroquinazolin-4-yl)-2,5-dimethylpiperazin-1-yl)prop-2-en-1-one] | +++ (+++ indicates binding activity greater than 80%) |
| C=CC(=O)N1C[C@H](C)N(c2nc(N3CC(NC)C3)nc3c(F)c(-c4c(C)ccc5cnn(C)c45)c(Cl)cc23)C[C@H]1C (atropisomer, axis not shown) [Compound 206, 1-((2R,5S)-4-((R)-6-chloro-7-(1,6-dimethyl-1H-indazol-7-yl)-8-fluoro-2-(3-(methylamino)azetidin-1-yl)quinazolin-4-yl)-2,5-dimethylpiperazin-1-yl)prop-2-en-1-one] | +++ (+++ indicates binding activity greater than 80%) |
| C=CC(=O)N1C[C@H](C)N(c2nc(N3CC(NC)C3)nc3c(F)c(-c4c(C)ccc5cnn(C6CC6)c45)c(Cl)cc23)C[C@H]1C (atropisomer, axis not shown) [Compound 207, 1-((2R,5S)-4-((S)-6-chloro-7-(1-cyclopropyl-6-methyl-1H-indazol-7-yl)-8-fluoro-2-(3-(methylamino)azetidin-1-yl)quinazolin-4-yl)-2,5-dimethylpiperazin-1-yl)prop-2-en-1-one] | + (+ indicates binding activity greater than 0% and up to 50%) |
| C=CC(=O)N1C[C@H](C)N(c2nc(N3CC(NC)C3)nc3c(F)c(-c4c(C)ccc5cnn(C6CC6)c45)c(Cl)cc23)C[C@H]1C (atropisomer, axis not shown) [Compound 208, 1-((2R,5S)-4-((R)-6-chloro-7-(1-cyclopropyl-6-methyl-1H-indazol-7-yl)-8-fluoro-2-(3-(methylamino)azetidin-1-yl)quinazolin-4-yl)-2,5-dimethylpiperazin-1-yl)prop-2-en-1-one] | +++ (+++ indicates binding activity greater than 80%) |
| C=CC(=O)N1C[C@H](C)N(c2nc(N3CC(NC)C3)nc3c(F)c(-c4c(C)ccc5[nH]nc(C6CC6)c45)c(Cl)cc23)C[C@H]1C (atropisomer, axis not shown) [Compound 210, 1-((2R,5S)-4-((S)-6-chloro-7-(3-cyclopropyl-5-methyl-1H-indazol-4-yl)-8-fluoro-2-(3-(methylamino)azetidin-1-yl)quinazolin-4-yl)-2,5-dimethylpiperazin-1-yl)prop-2-en-1-one] | + (+ indicates binding activity greater than 0% and up to 50%) |
| [2H]C([2H])([2H])N(C1CN(c2nc(N3C[C@@H](C)N(C(=O)C=C)C[C@@H]3C)c3cc(Cl)c(-c4c(C)ccc5cnn(C)c45)c(F)c3n2)C1)C([2H])([2H])[2H] (atropisomer, axis not shown) [Compound 211, 1-((2R,5S)-4-((S)-6-chloro-7-(1,6-dimethyl-1H-indazol-7-yl)-2-(3-(di-perdeuteromethylamino)azetidin-1-yl)-8-fluoroquinazolin-4-yl)-2,5-dimethylpiperazin-1-yl)prop-2-en-1-one] | + (+ indicates binding activity greater than 0% and up to 50%) |
| [2H]C([2H])([2H])N(C1CN(c2nc(N3C[C@@H](C)N(C(=O)C=C)C[C@@H]3C)c3cc(Cl)c(-c4c(C)ccc5cnn(C)c45)c(F)c3n2)C1)C([2H])([2H])[2H] (atropisomer, axis not shown) [Compound 212, 1-((2R,5S)-4-((R)-6-chloro-7-(1,6-dimethyl-1H-indazol-7-yl)-2-(3-(di-perdeuteromethylamino)azetidin-1-yl)-8-fluoroquinazolin-4-yl)-2,5-dimethylpiperazin-1-yl)prop-2-en-1-one] | +++ (+++ indicates binding activity greater than 80%) |
| C=CC(=O)N1C[C@H](C)N(c2nc(N3CC(N(C)C)C3)nc3c(F)c(-c4ccc(F)c5cnn(C6CC6)c45)c(Cl)cc23)C[C@H]1C (atropisomer, axis not shown) [Compound 217, 1-((2R,5S)-4-((S)-6-chloro-7-(1-cyclopropyl-4-fluoro-1H-indazol-7-yl)-2-(3-(dimethylamino)azetidin-1-yl)-8-fluoroquinazolin-4-yl)-2,5-dimethylpiperazin-1-yl)prop-2-en-1-one] | + (+ indicates binding activity greater than 0% and up to 50%) |
| C=CC(=O)N1C[C@H](C)N(c2nc(N3CC(N(C)C)C3)nc3c(F)c(-c4ccc(F)c5cnn(C6CC6)c45)c(Cl)cc23)C[C@H]1C (atropisomer, axis not shown) [Compound 218, 1-((2R,5S)-4-((R)-6-chloro-7-(1-cyclopropyl-4-fluoro-1H-indazol-7-yl)-2-(3-(dimethylamino)azetidin-1-yl)-8-fluoroquinazolin-4-yl)-2,5-dimethylpiperazin-1-yl)prop-2-en-1-one] | +++ (+++ indicates binding activity greater than 80%) |
| C=CC(=O)N1C[C@H](C)N(c2nc(N3CC(NC)C3)nc3c(F)c(-c4c(C)ccc5[nH]nc(C)c45)c(Cl)cc23)C[C@H]1C (atropisomer, axis not shown) [Compound 219, 1-((2R,5S)-4-((S)-6-chloro-7-(3,5-dimethyl-1H-indazol-4-yl)-8-fluoro-2-(3-(methylamino)azetidin-1-yl)quinazolin-4-yl)-2,5-dimethylpiperazin-1-yl)prop-2-en-1-one] | + (+ indicates binding activity greater than 0% and up to 50%) |
| C=CC(=O)N1C[C@H](C)N(c2nc(N3CC(NC)C3)nc3c(F)c(-c4c(C)ccc5[nH]nc(C)c45)c(Cl)cc23)C[C@H]1C (atropisomer, axis not shown) [Compound 220, 1-((2R,5S)-4-((R)-6-chloro-7-(3,5-dimethyl-1H-indazol-4-yl)-8-fluoro-2-(3-(methylamino)azetidin-1-yl)quinazolin-4-yl)-2,5-dimethylpiperazin-1-yl)prop-2-en-1-one] | +++ (+++ indicates binding activity greater than 80%) |
| [2H]C([2H])([2H])N(C1CN(c2nc(N3C[C@@H](C)N(C(=O)C=C)C[C@@H]3C)c3cc(Cl)c(-c4c(C)ccc5[nH]nc(C)c45)c(F)c3n2)C1)C([2H])([2H])[2H] (atropisomer, axis not shown) [Compound 221, 1-((2R,5S)-4-((R)-6-chloro-7-(3,5-dimethyl-1H-indazol-4-yl)-2-(3-(di-perdeuteromethylamino)azetidin-1-yl)-8-fluoroquinazolin-4-yl)-2,5-dimethylpiperazin-1-yl)prop-2-en-1-one] | +++ (+++ indicates binding activity greater than 80%) |
| [2H]C([2H])([2H])N(C1CN(c2nc(N3C[C@@H](C)N(C(=O)C=C)C[C@@H]3C)c3cc(Cl)c(-c4c(C)ccc5[nH]nc(C)c45)c(F)c3n2)C1)C([2H])([2H])[2H] (atropisomer, axis not shown) [Compound 222, 1-((2R,5S)-4-((S)-6-chloro-7-(3,5-dimethyl-1H-indazol-4-yl)-2-(3-(di-perdeuteromethylamino)azetidin-1-yl)-8-fluoroquinazolin-4-yl)-2,5-dimethylpiperazin-1-yl)prop-2-en-1-one] | + (+ indicates binding activity greater than 0% and up to 50%) |
| [2H]C([2H])([2H])N(C1CN(c2nc(N3C[C@@H](C)N(C(=O)C=C)C[C@@H]3C)c3cc(Cl)c(-c4c(C)ccc5[nH]nc(C6CC6)c45)c(F)c3n2)C1)C([2H])([2H])[2H] (atropisomer, axis not shown) [Compound 223, 1-((2R,5S)-4-((S)-6-chloro-7-(3-cyclopropyl-5-methyl-1H-indazol-4-yl)-2-(3-(di-perdeuteromethylamino)azetidin-1-yl)-8-fluoroquinazolin-4-yl)-2,5-dimethylpiperazin-1-yl)prop-2-en-1-one] | + (+ indicates binding activity greater than 0% and up to 50%) |
| [2H]C([2H])([2H])N(C1CN(c2nc(N3C[C@@H](C)N(C(=O)C=C)C[C@@H]3C)c3cc(Cl)c(-c4c(C)ccc5[nH]nc(C6CC6)c45)c(F)c3n2)C1)C([2H])([2H])[2H] (atropisomer, axis not shown) [Compound 224, 1-((2R,5S)-4-((R)-6-chloro-7-(3-cyclopropyl-5-methyl-1H-indazol-4-yl)-2-(3-(di-perdeuteromethylamino)azetidin-1-yl)-8-fluoroquinazolin-4-yl)-2,5-dimethylpiperazin-1-yl)prop-2-en-1-one] | + (+ indicates binding activity greater than 0% and up to 50%) |
